Laboratory results as given in US20250084074A1, “SUBSTITUTED HETEROCYCLES AS HSET INHIBITORS” (MERCK PATENT GMBH, priority 2022, published 2025).

Target: HSET full length protein (Homo sapiens (Human), UniProt Q9BW19)
Experiment: HSET ADP-Glo Assay S - 3 μM ATP
Assay type: biochemical
Settings: 5 nM HSET, 70 μg/mL microtubule, 80 min at rt, read-out: COMBINED HSET ADP GLO IC50
Method: Example 281: Testing compounds of the present invention for inhibitory activities against HSET—HSET ADP-Glo Assay S—3 μM ATP
Reagents: (+4° C. Storage) • Paclitaxel Prod.No.TXD.01 2 mM in DMSO (from Universal Biologicals Cambridge). • Tubulin Protein (Pre-formed Microtubules): Bovine Brain Prod.No.MT001-XL Lot.025 10 mg/mL (from Universal Biologicals Cambridge).
Reagents: (−80° C. Storage) • MT001-XL—Tubulin Protein (Pre-formed Microtubules): Bovine Brain—reconstituted in buffer—15 mM PIPES pH7, 1 mM MgCl2, 20 μM paclitaxel (aliquots at 10 mg/mL) from Universal Biologicals Cambridge. • HSET full length protein—Current batch is FL HSET Prep1 (SEQ-000096_002-01_01) • Buffer is 20 mM Hepes pH 7.5, 200 mM NaCl, 2 mM TCEP, 5% glycerol (5 μL aliquots at 10.2 μM)
Reagents: (−20° C. Storage) • ADP-Glo Kinase Assay kit (Promega Prod.No.V9102) 10,000 assay points • ADP-Glo reagent (50 mL), Kinase Detection Reagent (100 mL), and Ultrapure ATP (10 mM) aliquoted
Buffer Stocks (filtered and stored at rt for up to 1 month) • HEPES acid, 4-(2-Hydroxyethyl)piperazine-1-ethanesulfonic acid MW:238, 238.3 mg/mL=1 M • 7149 mg/30 mL=1M (pH to 6.8 with 5 M NaOH) • PIPES, 1,4-Piperazinediethanesulfonic acid MW: 302.4, 30.24 mg/mL=100 mM; 907.2 mg/30 mL=100 mM (pH to 7 with 5 M NaOH, white cloudy suspension until the pH changes) • EGTA, Ethylene glycol-bis(2-aminoethylether)-N,N,N′,N′-tetraacetic acid MW: 380.35, 38.035 mg/mL=100 mM • 1901.75 mg/50 mL=100 mM (pH to ˜7 with 5 M NaOH)—takes a long time to get into solution and for pH to stabilize • Triton-X-100, MW: 625, 62.5 mg/mL=100 mM (6.25% w/v) (viscous, pipette Triton X-100 with a Gilson using a trimmed pipette tip)
ECHO Protocol • Create an ECHO intermediate plate by adding 24.5 μL DMSO to columns 1 & 2, and 40 μL DMSO to columns 23 & 24 of an ECHO 384PP plate • Add 100 nL of compound/DMSO per well in 384-well Proxi-Plate Plus (white) —Perkin Elmer Cat #6008289 using ECHO dose response protocol 100 nL normal to proxi_8pt_200 uM.
Assay buffer (Keep on ice): HEPES pH 6.8, MgCl2, EGTA, Triton X-100, DTT, HPLC H2O Microtubule Working Solution (3.2): • 1 ml PM buffer: PIPES pH 7.0, MgCl2, HPLC H2O, Paclitaxel, mix well, store at rt • Then add 26.4 μL of 10 mg/ml microtubules to 724 μL of the above PM buffer to make 750 μL of microtubule working solution @350 μg/mL microtubules (store at rt)
Stock HSET enzyme solution (3.1)—keep on ice • Add 1.33 μL 10.2 μM HSET Prepi (SEQ-000096_002-01_01) to 1358 μL assay buffer to make a 10 nM stock for a 5 nM final assay concentration (1/1020 dilution).
HSET/Microtubule working solution (3.3) • Mix solutions 3.1 and 3.2 in the ratio of 2.5:1 (1214.3 μL 3.1+485.7 μL 3.2) keep at rt for 15 min • 3.2 is diluted 3.5-fold, 3.1 is diluted 1.4-fold BLANK solution is 357 μL 2XAB+143 μL microtubule working solution 3.2. (Same proportions as HSET/Microtubule working solution (3.3))
ATP Working solution is 1 μL 10 mM UltraPure ATP (Promega kit)+999 μL ddH20 gives 10 μM ATP for a 3 μM final assay concentration, stored on ice.
Assay procedure in PROXIPLATE 384 PLUS WHITE (Perkin Elmer) plates (Remove 2.4 mL ADP Glo and 4.5 mL Kinase detection reagent from freezer to warm up to rt) • Add 3.5 μL BLANK solution to assay plate (column 12) • Add 3.5 μL HSET/Microtubule solution (3.3) (columns 1-11 & 13-24) • Centrifuge at 1000 rpm for 1 min • (pre-incubate enzyme and compound for 10 min)
Add 1.5 μL of 10 μM ATP to start reaction gives a final [HSET] of 5 nM, [ATP] of 3 μM and [microtubule] of 70 μg/mL, centrifuge at 1000 rpm for 1 min and incubated at rt for 80 min.
After the 80-minute incubation, stop reaction by adding 5 μL ADP-Glo reagent to all wells. Centrifuge for 1 min at 1000 rpm, leave for 40 min at rt.
In the dark/away from direct light, add 10 μL Kinase Detection Reagent (KDR) to all wells, Seal plate with a Topseal (Perkin Elmer Cat #6050185) and centrifuge as above, leave for 40 min at rt covered in foil. […]

HSET full length protein, sequence (Q9BW19 whole entry): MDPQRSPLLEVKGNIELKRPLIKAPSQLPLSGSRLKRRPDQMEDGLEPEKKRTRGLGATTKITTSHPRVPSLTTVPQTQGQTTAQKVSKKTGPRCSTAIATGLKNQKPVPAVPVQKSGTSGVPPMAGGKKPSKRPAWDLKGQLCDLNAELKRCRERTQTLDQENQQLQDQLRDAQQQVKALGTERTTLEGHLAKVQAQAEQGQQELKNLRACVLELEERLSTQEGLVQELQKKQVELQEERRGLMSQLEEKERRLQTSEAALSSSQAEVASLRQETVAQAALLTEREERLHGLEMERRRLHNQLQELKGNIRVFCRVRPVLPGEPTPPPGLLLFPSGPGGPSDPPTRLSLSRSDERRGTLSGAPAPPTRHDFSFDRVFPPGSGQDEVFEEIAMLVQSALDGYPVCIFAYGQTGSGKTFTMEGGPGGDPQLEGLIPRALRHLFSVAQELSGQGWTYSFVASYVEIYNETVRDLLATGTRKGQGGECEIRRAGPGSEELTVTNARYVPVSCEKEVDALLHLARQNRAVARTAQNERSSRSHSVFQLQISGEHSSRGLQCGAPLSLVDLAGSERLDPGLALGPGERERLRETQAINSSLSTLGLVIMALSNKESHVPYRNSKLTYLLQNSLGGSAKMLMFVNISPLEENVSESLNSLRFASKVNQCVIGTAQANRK

SMILES	IC50
CCOC(=O)c1sc(NC(=O)CCNC(=O)c2cccc(-c3ncon3)c2)nc1C [Example 23, Ethyl 2-(3-(3-(1,2,4-oxadiazol-3-yl)benzamido)propanamido)-4-methylthiazole-5-carboxylate]	146 nM
CCOC(=O)c1sc(NC(=O)CCNC(=O)c2cc(Cl)cc(-c3noc(C)n3)c2)nc1C [Example 24, Ethyl 2-(3-(3-chloro-5-(5-methyl-1,2,4-oxadiazol-3-yl)benzamido)-propanamido)-4-methylthiazole-5-carboxylate]	55 nM
CCCOC(=O)c1sc(NC(=O)CCNC(=O)c2cc(Cl)cc(-c3noc(C)n3)c2)nc1C [Example 25, Propyl 2-(3-(3-chloro-5-(5-methyl-1,2,4-oxadiazol-3-yl)benzamido)propanamido)-4-methylthiazole-5-carboxylate]	13 nM
CCCOC(=O)c1sc(NC(=O)CCNC(=O)c2cc(C)cc(-c3noc(C)n3)c2)nc1C [Example 26, Propyl 4-methyl-2-(3-(3-methyl-5-(5-methyl-1,2,4-oxadiazol-3-yl)benzamido)propanamido)thiazole-5-carboxylate]	13 nM
CCCOC(=O)c1cc(NC(=O)CCNC(=O)c2cc(C)cc(-c3noc(C)n3)c2)nn1C [Example 27, Propyl 1-methyl-3-(3-(3-methyl-5-(5-methyl-1,2,4-oxadiazol-3-yl)benzamido)propanamido)-1 H-pyrazole-5-carboxylate]	116 nM
CCCOC(=O)c1sc(NC(=O)CCNC(=O)c2cc(C#N)cc(C(F)(F)F)c2)nc1C [Example 28, Propyl 2-(3-(3-cyano-5-(trifluoromethyl)benzamido)propanamido)-4-methylthiazole-5-carboxylate]	2240 nM
CCCOC(=O)c1sc(NC(=O)CCNC(=O)c2cc(C(=O)OC)cc(C(C)(C)C)c2)nc1C [Example 29, Propyl 2-(3-(3-(tert-butyl)-5-(methoxycarbonyl)benzamido)propanamido)-4-methylthiazole-5-carboxylate]	77 nM
CCCOC(=O)c1sc(NC(=O)CCNC(=O)c2cc(C#N)cc(C(=O)OC)c2)nc1C [Example 30, Propyl 2-(3-(3-cyano-5-(methoxycarbonyl)benzamido)propanamido)-4-methylthiazole-5-carboxylate]	186 nM
Cc1nc(-c2cc(Cl)cc(C(=O)NCCC(=O)Nc3nc(C)c(C(C)(C)C)s3)c2)no1 [Example 31, N-[3-[(5-tert-butyl-4-methyl-thiazol-2-yl)amino]-3-oxo-propyl]-3-chloro-5-(5-methyl-1,2,4-oxadiazol-3-yl)benzamide]	191 nM
CCCOC(=O)c1sc(NC(=O)CCNC(=O)c2cc(-c3noc(C)n3)cc(C(F)(F)F)c2)nc1C [Example 32, Propyl 4-methyl-2-(3-(3-(5-methyl-1,2,4-oxadiazol-3-yl)-5-(trifluoromethyl)benzamido)propanamido)thiazole-5-carboxylate]	11 nM
CCCOC(=O)c1sc(NC(=O)CCNC(=O)c2cc(C(=O)OC)cc([N+](=O)[O-])c2)nc1C [Example 33, Propyl 2-[3-[(3-methoxycarbonyl-5-nitro-benzoyl)amino]propanoylamino]-4-methyl-thiazole-5-carboxylate]	161 nM
CCOC(=O)c1sc(NC(=O)CCNC(=O)c2cccc(-c3nc(C)no3)c2)nc1C [Example 34, Ethyl 4-methyl-2-(3-(3-(3-methyl-1,2,4-oxadiazol-5-yl)benzamido)propanamido)thiazole-5-carboxylate]	101 nM
Cc1nc(-c2cccc(C(=O)NCCC(=O)Nc3nc(C)c(C(=O)OCC4CC4)s3)c2)no1 [Example 35, Cyclopropylmethyl 4-methyl-2-(3-(3-(5-methyl-1,2,4-oxadiazol-3-yl)benzamido)propanamido)thiazole-5-carboxylate]	31 nM
CCOC(=O)c1sc(NC(=O)CCNC(=O)c2cccc(-c3noc(CC)n3)c2)nc1C [Example 36, Ethyl 2-(3-(3-(5-ethyl-1,2,4-oxadiazol-3-yl)benzamido)propanamido)-4-methylthiazole-5-carboxylate]	2100 nM
CCOC(=O)c1sc(NC(=O)CCNC(=O)c2cccc(-c3nnc(C)o3)c2)nc1C [Example 37, Ethyl 4-methyl-2-(3-(3-(5-methyl-1,3,4-oxadiazol-2-yl)benzamido)propanamido)thiazole-5-carboxylate]	260 nM
CCOC(=O)c1sc(NC(=O)CCNC(=O)c2cccc(-c3nnn(C)n3)c2)nc1C [Example 38, Ethyl 4-methyl-2-(3-(3-(2-methyl-2H-tetrazol-5-yl)benzamido)propanamido)thiazole-5-carboxylate]	27 nM
Cc1nc(NC(=O)CCNC(=O)c2cccc(-c3nnn(C)n3)c2)sc1C(=O)OC(C)(C)C [Example 39, tert-Butyl 4-methyl-2-[3-[[3-(2-methyltetrazol-5-yl)benzoyl]amino]propanoylamino]thiazole-5-carboxylate]	8 nM
Cc1nc(NC(=O)CCNC(=O)c2cccc(-c3nnn(C)n3)c2)sc1C(=O)OC(C)C [Example 40, Isopropyl 4-methyl-2-[3-[[3-(2-methyltetrazol-5-yl)benzoyl]amino]propanoylamino]thiazole-5-carboxylate]	10 nM
Cc1nc(NC(=O)CCNC(=O)c2cccc(-c3nnn(C)n3)c2)sc1C(C)(C)C [Example 41, N-[3-[(5-tert-butyl-4-methyl-thiazol-2-yl)amino]-3-oxo-propyl]-3-(2-methyltetrazol-5-yl)benzamide]	184 nM
CCOC(=O)c1cccc(C(=O)NCCC(=O)Nc2nc(C)c(C(=O)OCC)s2)c1 [Example 42, Ethyl 2-(3-(3-(ethoxycarbonyl)benzamido)propanamido)-4-methylthiazole-5-carboxylate]	1790 nM
CCOC(=O)c1sc(NC(=O)CCNC(=O)c2cc(C)cc(-c3noc(C)n3)c2)nc1C [Example 43, Ethyl 4-methyl-2-(3-(3-methyl-5-(5-methyl-1,2,4-oxadiazol-3-yl)benzamido)propanamido)thiazole-5-carboxylate]	44 nM
CCCOC(=O)c1sc(NC(=O)CCNC(=O)c2cc(C(=O)OC)cc(-c3noc(C)n3)c2)nc1C [Example 44, Propyl 2-(3-(3-(methoxycarbonyl)-5-(5-methyl-1,2,4-oxadiazol-3-yl)benzamido)propanamido)-4-methylthiazole-5-carboxylate]	281 nM
CCOC(=O)c1sc(NC(=O)CCNc2nccc3ccc(-c4noc(C)n4)cc23)nc1C [Example 45, Ethyl 4-methyl-2-[3-[[7-(5-methyl-1,2,4-oxadiazol-3-yl)-1-isoquinolyl]amino]propanoylamino]thiazole-5-carboxylate]	5 nM
